Data on two compounds can be found in paper PMC11811597, “Phenomics‐Based Discovery of Novel Orthosteric Choline Kinase Inhibitors” (Angewandte Chemie (International Ed. in English), 2025).

One assay relates to PWP1. Put plainly: Competitive affinity-based chemoproteomics (UNC0965 matrix), PBMC cell extract. The assay is classed as binding, human. To be noted: 20 µM competitor, n=2. On the procedure: (§1) described.[2] Lysates were precleared with bead slurry (100 μL) for 30 min at 4 °C and then treated with UNC0638 or UNC0737 (20 μM) or DMSO control for 30 min at 4 °C followed by incubation with affinity matrix for 2 h at 4 °C. Affinity matrices were washed with buffer A (5 mL) and proteins eluted with 100 μL of 2x Laemmli sample buffer, 100 mM DTT, in PBS and heating for 10 min at 90 °C.
(§2) Eluents (70 µL) were diluted in 0.1 M Tris (pH 7.8) to 200 µL, reduced with 5 mM DTT for 30 min at RT, and alkylated with 20 mM iodoacetamide for 30 min at RT in the dark. Proteins were precipitated by sequential addition of MeOH (600 µL), CHCl3 (150 µL) and H2O (450 µL), pelleted (17,000 × g, 5 min), washed with further MeOH (2 × 600 µL), and re-pelleted. Air dried pellets were resuspended in 50 μL 6 M urea (pH 7.8) by vortexing and then diluted with 250 μL H2O before adding 1 µg trypsin for overnight incubation at 37 °C. The digests were acidified with FA (1% v/v final concentration), desalted using SOLA HRP SPE Cartridges (Thermo Fisher), eluted with 69% v/v MeCN, 0.1% v/v FA in H2O (600 μL) and dried in vacuo. Dried peptides were stored at -20 °C before resuspension in 2% v/v MeCN, 0.1% v/v FA in H2O (20 μL) for LC-MS/MS analysis.
(§3) LC-MS/MS Data Acquisition
(§4) Digested samples were analysed by nano-UPLC–MS/MS using a Dionex Ultimate 3000 nano UPLC fitted with an EASY spray column (75 μm × 500 mm, 2 μm particle size, Thermo Scientific), coupled to an Orbitrap Q Exactive instrument. A 60 min gradient of 0.1% (v/v) formic acid in 5 % (v/v) DMSO to 0.1% (v/v) formic acid with 35% (v/v) acetonitrile in 5 % (v/v) DMSO at a flow rate of 250 nL min−1 was used. The instrument was operated in a data-dependant mode, with survey scans acquired at a resolution of 70,000 at 200 m/z and the 15 most abundant precursors selected for HCD fragmentation with an AGC target of […] ions.
(§5) Raw data was processed using MaxQuant[3] version 2.0.1.0 and the reference complete human proteome FASTA file (UniProt, downloaded 05.08.21). Label Free Quantification (LFQ) and Match Between Runs were selected; Cysteine carbamidomethylation was selected as a fixed modification, and methionine oxidation and asparagine deamidation as variable modifications. Default settings for identification and quantification were used. Specifically, a minimum peptide length of 7, a maximum of 2 missed cleavage sites, and a maximum of 5 labelled amino acids per peptide were allowed.
(§6) Through selection of the ‘trypsin/P’ general setting, peptide bond cleavage at arginine or lysine (followed by any amino acid) was considered during in silico digest of the reference proteome. […]
(§7) mode selected for both identification and quantification of proteins (razor peptides are uniquely assigned to protein groups and not to individual proteins).

For assay [1], the system named is PRCP. The description is as above. The assay is classed as binding, human. The following applies: 20 µM competitor, n=2. As for the experimental part:
as §1, §2, §3, §4, §5, §6, §7

Another assay deals with CHKA (Homo sapiens, UniProt P35790). Put plainly: PK/LDH coupled choline kinase enzyme assay. The assay is classed as biochemical. On the set-up: host or cells: E. coli BL21(DE3). The following applies: concentration-dependent. On the procedure:
carried out using REFMAC[9] and COOT,[10] and concluded when no improvements resulted for Rfree and Rwork values, and when density maps indicated no further changes were justified.
Choline Coupled Enzymatic Assay
CHKA (120 ng, 24 µg/ml) was arrayed (5 µL) into a 96 well semi-skirted real time PCR plate. 4-fold dilution series and vehicle controls (0.5% DMSO) were prepared in a separate plate. A further DMSO control was included for use with a no protein well control. The dilutions (17 µL) were mixed with reaction buffer (136 µL, see Table below) and arrayed (45 µL) onto the CHKA-containing PCR plate.
After mixing, bubbles were removed by centrifugation (1000 × g, 1 min) and absorbance read at 340 nm on a PheraSTAR FSX (BMG Labtech), reading every minute for 10 min. Non-linear curve fitting and graph generation was performed using Graphpad Prism 8 software.
Components of the assay reaction buffer.
Component Stock concentration Volume per buffer Final reaction […]
Experiments were performed as described earlier with few modifications. In short, 3 replicates of intact HepG2 cells were treated with 30 µM UNC0638, UNC373 or corresponding volume of DMSO in medium-free experimental buffer for 60 min at 37 °C with end-over-end rotation. For lysates: Washed K562 cells were resuspended in medium-free experimental buffer and lysed by three freeze-thaw cycles. […]

Assay [2] addresses T1, PRCP (Homo sapiens, UniProt P42785).
T1 construct: endogenous in cells; host or cells: MCF7 whole cell lysate
Put plainly: Competitive affinity-based chemoproteomics (UNC0965 matrix), MCF7 lysate. To be noted: 20 μM competitor, n=2. In kind it is binding. As for the experimental part: (§8) A-366 and UNC0638 were purchased from Tocris. ARIAD and V-11-07-11 were purchased from Wuxi Apptec. UNC0737 and UNC0965 were synthesised as previously described.[1] […]
(§9) #35050061). Cells were maintained at 37 °C in a humidified 5% CO2 atmosphere. […]
(§10) Chemical Proteomics Drug Pulldown
(§11) For lysate generation MCF7 cells were grown until approximately 80% confluency before being pelleted and washed with PBS. Cell pellets were subsequently lysed by addition of Buffer A (50 mM Tris pH 7.5, 0. 8% v/v NP-40, 5% v/v glycerol, 1.5 mM MgCl2, 100 mM NaCl, 25 mM NaF, 1 mM Na3VO4, 1 mM PMSF, 1 mM DTT, 10 μg mL−1 TLCK, 1 μg mL−1 Leupeptin, 1 μg mL−1 Aprotinin, 1 μg mL−1 soy bean trypsin) as previously described.[2]
(§12) For each pulldown condition, UNC0965 was coupled to 100 μL of UltraLink Immobilized Streptavidin Plus bead slurry (50% in isopropanol, GE Healthcare) to generate the affinity matrix as previously […]
as §1, §2, §3, §4, §5
(§13) Through selection of the ‘trypsin/P’ general setting, peptide bond cleavage at arginine or lysine (followed by any amino acid) was considered during in silico digest of the reference proteome. The allowed precursor and fragment ion mass tolerances were 4.5 ppm and 20 ppm, respectively. Peptides and proteins were identified utilizing a 0.01 false discovery rate, with “unique and razor peptides” […]
(§14) mode selected for both identification and quantification of proteins (razor peptides are uniquely assigned to protein groups and not to individual proteins). At least 1 razor + unique peptides were required for valid quantification. […]

For another assay, the target named is T2, EHMT1 (GLP) (Homo sapiens, UniProt Q9H9B1).
T2 construct: endogenous in cells; host or cells: MCF7 whole cell lysate
T2 sequence (Q9H9B1 whole entry): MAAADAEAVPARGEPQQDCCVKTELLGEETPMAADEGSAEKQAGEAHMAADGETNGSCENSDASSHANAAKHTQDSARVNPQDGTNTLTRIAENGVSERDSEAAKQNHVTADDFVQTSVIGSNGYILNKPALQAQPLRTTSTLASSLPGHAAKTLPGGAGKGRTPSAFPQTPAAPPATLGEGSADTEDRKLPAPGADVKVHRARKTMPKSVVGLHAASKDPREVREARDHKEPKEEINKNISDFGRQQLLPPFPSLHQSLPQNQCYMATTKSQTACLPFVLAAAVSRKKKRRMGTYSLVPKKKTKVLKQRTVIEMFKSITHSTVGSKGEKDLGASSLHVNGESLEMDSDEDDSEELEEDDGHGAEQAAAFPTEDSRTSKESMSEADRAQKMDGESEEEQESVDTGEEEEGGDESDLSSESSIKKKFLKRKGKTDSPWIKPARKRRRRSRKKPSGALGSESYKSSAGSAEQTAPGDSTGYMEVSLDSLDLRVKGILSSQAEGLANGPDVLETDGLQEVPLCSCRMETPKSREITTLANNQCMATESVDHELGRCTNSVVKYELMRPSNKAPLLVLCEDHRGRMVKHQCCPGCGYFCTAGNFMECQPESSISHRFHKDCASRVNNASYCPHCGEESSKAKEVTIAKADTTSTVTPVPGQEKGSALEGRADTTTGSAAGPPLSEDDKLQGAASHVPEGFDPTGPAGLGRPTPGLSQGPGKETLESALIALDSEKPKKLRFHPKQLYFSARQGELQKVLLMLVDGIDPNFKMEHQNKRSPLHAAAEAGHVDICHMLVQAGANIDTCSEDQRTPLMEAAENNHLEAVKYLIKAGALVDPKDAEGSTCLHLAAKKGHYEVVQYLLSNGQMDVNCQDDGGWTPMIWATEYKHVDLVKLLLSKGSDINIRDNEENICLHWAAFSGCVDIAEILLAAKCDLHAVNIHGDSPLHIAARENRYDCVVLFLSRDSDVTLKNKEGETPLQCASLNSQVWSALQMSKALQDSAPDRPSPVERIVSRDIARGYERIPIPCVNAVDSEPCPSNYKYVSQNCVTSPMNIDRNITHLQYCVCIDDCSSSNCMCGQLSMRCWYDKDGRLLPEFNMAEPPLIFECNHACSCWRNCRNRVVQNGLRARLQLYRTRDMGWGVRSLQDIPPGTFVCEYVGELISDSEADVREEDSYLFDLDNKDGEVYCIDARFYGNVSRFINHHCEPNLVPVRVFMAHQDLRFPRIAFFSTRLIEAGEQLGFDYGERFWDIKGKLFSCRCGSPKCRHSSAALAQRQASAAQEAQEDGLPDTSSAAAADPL
Described as above. In kind it is binding. The following applies: MCF7 lysates, 20 μM competitor. On the procedure: as §8, §9, §10, §11, §12, §1, §2, §3, §4, §5, §13, §14

The next assay deals with T3, TUBD1 (Homo sapiens, UniProt Q9UJT1).
T3 construct: endogenous in cells; host or cells: MCF7 whole cell lysate
T3 sequence (Q9UJT1 whole entry): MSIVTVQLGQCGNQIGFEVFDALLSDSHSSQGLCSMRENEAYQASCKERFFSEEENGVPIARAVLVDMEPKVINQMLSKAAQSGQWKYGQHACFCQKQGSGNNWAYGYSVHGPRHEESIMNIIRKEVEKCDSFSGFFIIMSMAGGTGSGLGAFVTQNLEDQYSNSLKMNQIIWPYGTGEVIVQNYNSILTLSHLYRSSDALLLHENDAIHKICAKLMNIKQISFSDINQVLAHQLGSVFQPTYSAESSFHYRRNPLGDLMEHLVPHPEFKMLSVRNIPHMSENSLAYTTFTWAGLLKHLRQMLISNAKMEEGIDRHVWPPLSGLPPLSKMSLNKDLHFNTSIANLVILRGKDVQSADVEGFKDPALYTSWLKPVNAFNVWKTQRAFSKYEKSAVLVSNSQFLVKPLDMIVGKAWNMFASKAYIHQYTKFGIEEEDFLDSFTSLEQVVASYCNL
The assay is described as above. In kind it is binding. To be noted: 20 μM competitor, n=2. On the procedure: as §8, §9, §10, §11, §12, §1, §2, §3, §4, §5, §13, §14

Sequence of CHKA (P35790 75-457 limits assumed): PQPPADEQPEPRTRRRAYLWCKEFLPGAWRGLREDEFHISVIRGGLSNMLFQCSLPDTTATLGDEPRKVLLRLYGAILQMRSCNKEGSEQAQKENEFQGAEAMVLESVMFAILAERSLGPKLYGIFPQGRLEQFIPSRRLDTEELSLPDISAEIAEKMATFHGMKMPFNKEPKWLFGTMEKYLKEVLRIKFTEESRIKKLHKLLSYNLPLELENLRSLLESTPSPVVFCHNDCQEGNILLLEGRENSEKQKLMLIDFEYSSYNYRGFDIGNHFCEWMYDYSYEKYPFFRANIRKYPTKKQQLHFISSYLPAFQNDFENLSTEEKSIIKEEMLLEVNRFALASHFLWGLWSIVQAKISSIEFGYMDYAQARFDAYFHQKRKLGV
T1 sequence (P42785 46-496): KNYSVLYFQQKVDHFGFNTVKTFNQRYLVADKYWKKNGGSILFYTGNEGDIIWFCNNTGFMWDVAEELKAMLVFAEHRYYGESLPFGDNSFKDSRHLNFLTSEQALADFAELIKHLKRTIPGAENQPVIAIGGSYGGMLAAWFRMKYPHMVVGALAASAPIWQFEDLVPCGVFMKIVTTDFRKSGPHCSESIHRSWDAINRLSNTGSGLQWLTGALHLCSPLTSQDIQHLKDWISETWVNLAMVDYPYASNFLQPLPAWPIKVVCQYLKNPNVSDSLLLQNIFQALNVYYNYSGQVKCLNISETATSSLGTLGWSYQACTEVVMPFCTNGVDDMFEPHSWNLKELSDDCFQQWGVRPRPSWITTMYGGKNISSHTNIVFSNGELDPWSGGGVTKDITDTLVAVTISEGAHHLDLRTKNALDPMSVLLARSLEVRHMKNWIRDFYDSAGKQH

For `COc1cc2c(NC3CCN(C(C)C)CC3)nc(C3CCCCC3)nc2cc1OCCCN1CCCC1` [UNC0638], in the assay on PWP1, the “FC vs DMSO (log2 competition), PWP1” value was -2.002. In addition, the “FC vs DMSO (log2 competition), PRCP” value with PRCP [1] is reported as -3.268; at PRCP [2], -2.542. Further, the CHKA catalytic activity entry on CHKA was “suppressed CHKA catalytic activity”. Also, on EHMT1 (GLP), the “competition for EHMT1 (GLP) binding to affinity matrix” value was “strong enrichment and competition”. Further, the “FC vs DMSO (log2 competition), TUBD1” value on TUBD1 was -2.877.

For the compound `COc1cc2c(N(C)C3CCN(C(C)C)CC3)nc(C3CCCCC3)nc2cc1OCCCN1CCCC1` [UNC0737], the “FC vs DMSO (log2 competition), PWP1” value with PWP1 was -0.1275. Besides, the “FC vs DMSO (log2 competition), PRCP” value is on record as -0.4338 in the assay with PRCP [1] and 0.1604 at PRCP [2]. On CHKA, the CHKA catalytic activity result is given as “suppressed CHKA catalytic activity”. Moreover, the “competition for EHMT1 (GLP) binding to affinity matrix” value at EHMT1 (GLP) was “did not ablate binding”. Besides, the “FC vs DMSO (log2 competition), TUBD1” value on TUBD1 is -0.7809.
